Measurements taken from patent US10253002B2, “Compounds and methods of treating infections” (Neoculi Pty Ltd., priority 2013, dated 2019).

Columns and labels:
S. pneumoniae isolates = test: Disk diffusion susceptibility (CLSI/EUCAST), Example 5; format: cell-based, Streptococcus pneumoniae
Procedure, shortened: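 Susceptibility to 12 antimicrobials was categorised (S/I/R) using CLSI breakpoints from zones of complete inhibition, read thrice to the nearest millimetre with the mode taken. Incubation was 16–24 h, 37 °C, 5% CO2.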

[1] = tested on: cell wall synthesis in S. aureus ATCC 29213; test: Macromolecular synthesis assay: cell wall synthesis ([14C]N-acetylglucosamine); format: cell-based, Staphylococcus aureus; details: positive control; 8 fold the MIC (2 μg/mL)
Protocol: Cells were grown at 35° C. overnight on Trypticase Soy agar. A colony from the plate was used to inoculate 10 ml of Mueller Hinton broth II (MHBII), and the culture was grown to early exponential growth phase (OD600==0.2 to 0.3) while incubating in a shaker at 35° C. and 200 rpm.
Bacterial cells in early exponential growth phase were transferred to M9 minimal medium and added to 1.5 mL eppendorf tubes (100 μL/tube) containing various concentrations of test compound or control antibiotics (5 μL) at 20× the final concentration in 100% DMSO as described above. Following a 5 min incubation at 37° C., [^14C]N-acetylglucosamine (0.4 μCi/reaction) was added to each tube and incubated for 45 min in a 37° C. heating block. Reactions were stopped through the addition of 100 μL of 8% SDS to each tube. Reactions were then heated at 95° C. for 30 min in a heating block, cooled, briefly centrifuged, and spotted onto pre-wet HA filters ([…]). After washing three times with 5 mL of 0.1% SDS, the filters were rinsed two times with 5 ml of deionized water, allowed to dry, and then counted using a Beckman LS3801 liquid scintillation counter.

[2] = tested on: S. aureus isolates (HA-MRSA, CA-MRSA, methicillin-susceptible staphylococci); test: Kirby-Bauer disc diffusion resistotyping, Example 4; format: cell-based, Staphylococcus aureus; details: for Total isolates resistant (Kirby-Bauer disc diffusion): all isolates (n = 30)
Procedure, shortened: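 CLSI Kirby-Bauer disc diffusion on Mueller-Hinton agar. Overnight SBA cultures (37 °C) were suspended in saline and adjusted to 0.5 McFarland before spreading. Antibiotic discs were read after 24 h at 37 °C.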

[3] = tested on: Staphylococcus pseudintermedius isolates (MSSP and MRSP); test: Disk diffusion and Epsilometer susceptibility testing, Example 6; format: cell-based; details: 13 MRSP isolates

In the case of `CN[C@H](CC(C)C)C(=O)N[C@H]1C(=O)N[C@@H](CC(N)=O)C(=O)N[C@H]2C(=O)N[C@H]3C(=O)N[C@H](C(=O)N[C@H](C(=O)O)c4cc(O)cc(O)c4-c4cc3ccc4O)[C@H](O)c3ccc(c(Cl)c3)Oc3cc2cc(c3O[C@@H]2O[C@H](CO)[C@@H](O)[C@H](O)[C@H]2O[C@H]2C[C@](C)(N)[C@H](O)[C@H](C)O2)Oc2ccc(cc2Cl)[C@H]1O` [Vancomycin], the “disk diffusion zone diameter” value (S. pneumoniae isolates; A66.1) is reported as 25 mm, the “disk diffusion zone diameter” value (S. pneumoniae isolates; D39) is reported as 22 mm and the “disk diffusion zone diameter” value (S. pneumoniae isolates; EF3030) is reported as 22 mm. For the same compound, the “disk diffusion zone diameter” value (S. pneumoniae isolates; L82016) was 23 mm, the “disk diffusion zone diameter” value (S. pneumoniae isolates; P9) was 21 mm and the “disk diffusion zone diameter” value (S. pneumoniae isolates; P21) was 21 mm. The “disk diffusion zone diameter” value (S. pneumoniae isolates; TIGR4) was 22 mm, the “disk diffusion zone diameter” value (S. pneumoniae isolates; WCH16) was 23 mm and the “disk diffusion zone diameter” value (S. pneumoniae isolates; WCH43) was 20 mm. The “disk diffusion zone diameter” value (S. pneumoniae isolates; WCH46) was 21 mm, the “disk diffusion zone diameter” value (S. pneumoniae isolates; WCH57) was 28 mm and the “disk diffusion zone diameter” value (S. pneumoniae isolates; WCH77) was 24 mm. For the same compound, the “disk diffusion zone diameter” value (S. pneumoniae isolates; WCH86) was 22 mm, the “disk diffusion zone diameter” value (S. pneumoniae isolates; WCH89) was 25 mm and the “disk diffusion zone diameter” value (S. pneumoniae isolates; WCH92) was 22 mm. The “disk diffusion zone diameter” value (S. pneumoniae isolates; WCH137) was 24 mm, the “disk diffusion zone diameter” value (S. pneumoniae isolates; WCH158) was 22 mm and the “disk diffusion zone diameter” value (S. pneumoniae isolates; WCH184) was 23 mm. The “disk diffusion zone diameter” value (S. pneumoniae isolates; WCH211) was 23 mm, the “disk diffusion zone diameter” value (S. pneumoniae isolates; WU2) was 21 mm and the “inhibition of cell wall synthesis” value [1] was 96%. For the same compound, the “isolates resistant (Kirby-Bauer disc diffusion)” value ([2]; CA-MRSA (n = 10)) was 0.00%, the “isolates resistant (Kirby-Bauer disc diffusion)” value ([2]; HA-MRSA (n = 10)) was 0.00% and the “isolates resistant (Kirby-Bauer disc diffusion)” value ([2]; Methicillin-susceptible staphylococci (n = 10)) was 0.00%. For the same compound, the “Total isolates resistant (Kirby-Bauer disc diffusion)” value [2] was 0.00%, the “Total isolates resistant (Kirby-Bauer disc diffusion)” value ([2]; listed as vancomycin) was “None of the isolates tested were vancomycin resistant” and the MRSP isolates susceptible [3] was 77%.
